pKd: −log10 of the molar value. Alexa488 = Alexa Fluor 488 fluorescent label

The target of assay [1] is T1, BACE (Homo sapiens, UniProt P56817). The assay can be described thus: Competitive binding assay, displacement of labeled EBP from BACE, fluorescence anisotropy. Also on record: The cDNA for the catalytic domain of human BACE (residues 1-460) was PCR-amplified; human IgG1 heavy chain (C, cleaved yes); thrombin cleavage site (C); made in house; host or cells: CHO DG44 cells (stably transfected, secreted). As for the experimental part:
The competitive binding assay was carried out at pH 7.1 (PBS buffer) or pH 4.5 (50 mM acetate buffer). The fluorescence anisotropy was measured at 25° C. in an AVIV fluorometer. The excitation and emission wavelengths were set to 495 and 519 nm, respectively. The excitation and emission slit widths were 4 and 10 nm, respectively.
The initial anisotropy value was measured. A concentrated unlabeled peptide or compound stock was titrated into the above solution of EBP and BACE. The final concentration of unlabeled peptide or compound ranges from 20 to 20000 nM. After each addition, the solution was mixed for 10 times with a pipettor. The fluorescence anisotropy was averaged over a 5 minute period.
The change in anisotropy was converted to fractional occupancy based on the r0 and rb obtained from the binding assay. The fractional occupancy was then plotted against the concentration of the competing peptide or compound. (see, for example, FIG. 6) The Kd of the competing ligand was calculated from curve fitting using the program […]™ (Synergy Software, Reading, Pa.). The equation used to fit the competition data is identical to equation 4 in Lai et al., (2000) Arch. Biochem. Biophys. 381:278-284.
The truncated unlabeled peptides were screened at a single concentration of 10 μM at pH 4.5. The anisotropy values detected with Molecule X in the absence of inhibitor, i.e., truncated unlabeled peptide (ra) and in the presence of the inhibitor (rb) and the labeled peptide alone (r0) were used to calculate the percent of inhibition: 100 (ra-rb)/(ra-r0). The percent of inhibition was compared among the truncated peptides.

The target of assay [2] is T1, BACE. As to the kind of experiment: Isothermal titration calorimetry (ITC) of BACE and peptides. It counts as binding. On the set-up: The cDNA for the catalytic domain of human BACE (residues 1-460) was PCR-amplified; human IgG1 heavy chain (C, cleaved yes); thrombin cleavage site (C); made in house; host or cells: CHO DG44 cells (stably transfected, secreted). The settings on record: 25° C. The method, then: Isothermal titration calorimetry was performed to determine quantitatively the binding affinities of BMS-561877 and BMS-561871 for β-secretase. Recombinant human BACE was expressed as a fusion protein with human IgG1, in Chinese hamster ovary (CHO) cells (Vassar et al., (1999) Science 286:735-741 and Haniu et al., (2000) J. Biol. Chem. 275:21099-21106).
This construct, referred to as BACE-T-IgG, also contained a protease cleavage site between BACE and IgG1, sensitive to human α-thrombin. The cDNA for the catalytic domain of human BACE (residues 1-460) was PCR-amplified and subcloned into the mammalian expression vector pTV1.6, upstream of a thrombin cleavage site linked to cDNA encoding human IgG1 heavy chain. The vector construct, pTV1.6-BACE-T-IgG, was used to produce stably transfected DHFR-deficient CHO DG44 cells, which were then scaled up using methotrexate for selection.
The clarified growth media harvested from CHO DG44 cells which contained the fusion protein was loaded onto a rProtein A SEPHAROSE™ column (5×20 cm, Amersham Pharmacia Biotech) using a peristaltic pump at 4° C., at 4 mL/min. The column was washed with Dulbecco's PBS, pH 7.1, 4 mL/min, until baseline absorbance at 280 nm was observed. BACE-T-IgG was eluted from the resin with 0.10 M citrate, pH 3.0, into tubes containing 0.5 volumes of 4 M Tris, pH 8. Fractions containing the fusion protein were dialyzed extensively using 12,000-14,000 […] MWCO membrane (UltraPURE, GIBCO BRL) against PBS, pH 7.1, at 4° C. The protein was sterile filtered (0.22 μm) and stored at 4° C.
To generate BACE for binding experiments, the fusion protein BACE-T-IgG was treated with human α-thrombin (Enzyme Research Labs, South Bend, Ind.) at a ratio of 1:500 (mass:mass) in Dulbecco's PBS, pH 7.1, at 37° C. for 2 hr. Human α-thrombin was removed by passing the sample over Benzamidine SEPHAROSE™ 6B column (Amersham Pharmacia Biotech). The cleaved IgG1 was captured by passing the solution over a rProtein A SEPHAROSE™ (Amersham Pharmacia Biotech) column, whereas the BACE passed through this column. The protein sample was further purified by concentrating to 10-15 mg/mL using a centrifugation concentration unit (Millipore Ultrafree 10 kDa MWCO, 15 mL unit) and loading onto a SUPERDEX™ 200 PC 3.2/30 gel-filtration column (Amersham Pharmacia Biotech). The column was run at 3 mL/min with Dulbecco's PBS, pH 7.1, at room temperature. Fractions containing BACE were combined, sterile filtered (0.22 μm) and stored at 4° C.
BACE was prepared for isothermal titrating calorimetry by extensive dialysis against fresh buffer at 4° C. using 12,000-14,000 […] MWCO dialysis membrane (UltraPURE, GIBCO BRL). […] Following 2 buffer changes, the protein was removed from the membrane and centrifuged (5 min×4000 g, 4° C.) to remove particulates. The protein was stored at 4° C. until needed for the calorimetry experiments. The protein concentration was determined by 10-fold dilution into the same buffer, and measuring the UV absorbance at 280 nm in a 1.00 cm pathlength cell (calculated value=1.22 AU=1.00 mg/mL protein, based on mean glycosylated molecular weight=53.5 kDa, and given amino acid composition). Final concentrations used in isothermal titrating calorimetry were typically 5.0 μM, containing a final concentration of 0.5% v/v DMSO.
Peptides were dissolved in the buffer dialysate from protein dialysis, and equal volumes of DMSO were added to each (0.5% v/v DMSO). The pH values of the solutions were adjusted as necessary to equal that of the buffer dialysate and protein sample within 0.01 pH units.

The target of assay [3] is T2, catalytic domain of human BACE expressed in a CHO cell line (Homo sapiens, UniProt P56817).
T2 construct: The cDNA for the catalytic domain of human BACE (residues 1-460) was PCR-amplified; human IgG1 heavy chain (C, cleaved yes); thrombin cleavage site (C); made in house; host or cells: CHO DG44 cells (stably transfected, secreted)
The assay can be described thus: Fluorescently labeled EBP binding to BACE, fluorescence anisotropy. Conditions: pH 4.5 (50 mM acetate), 25° C., 1:1 binding model; read-out: binding constant (Kd) of labeled EBP. As for the experimental part: An assay to evaluate the binding of BACE to EBPs labeled with a fluorescent molecule (for example, but not limited to Alexa488) was developed. This assay uses the catalytic domain of human BACE expressed in a CHO cell line (according to Example 3) and labeled EBPs such as Molecule X shown in FIG. 4. The change in fluorescent anisotropy of the EBP peptide upon binding to BACE is monitored.
Peptides were dissolved in 100% DMSO (dimethyl sulfoxide) at 10 mM concentration, and then diluted 10-fold into deionized water. The concentration of the labeled peptides was determined by their absorbance at 495 nm (ε=71000 cm^−1M^−1). The concentration of selected unlabeled peptides was determined by their Tyr absorbance at 276 nm (ε=1390 cm^−1M^−1 per Tyr residue).
The binding was carried out at pH 7.1 (PBS buffer) and pH 4.5 (50 mM acetate buffer) in the presence of 1% DMSO. Fluorescence anisotropy was measured at 25° C. in an AVIV fluorometer. The excitation and emission wavelengths were set to 495 and 519 nm, respectively. The excitation and emission slit width were 4 and 10 nm, respectively. A concentrated BACE stock was used to titrate a 300 μl solution of 10 nM labeled EBP. The final BACE concentration ranges from 10 to 5000 nM. After the addition of BACE, the solution was mixed for 10 times with a pipettor. The fluorescence anisotropy was averaged over a 5 minute period.
The change in anisotropy was plotted against the BACE concentration (see, for example, FIG. 5). The Kd of the labeled EBP as well as the initial (r0) and final anisotropy (rb) of the labeled EBP were calculated from curve fitting using the program Kaleidagraph. The equation used to fit the binding data is identical to equation 1 in Lai et al., (2000) Arch. Biochem. Biophys. 381:278-284.

T1 sequence (P56817 46-460 limits assumed): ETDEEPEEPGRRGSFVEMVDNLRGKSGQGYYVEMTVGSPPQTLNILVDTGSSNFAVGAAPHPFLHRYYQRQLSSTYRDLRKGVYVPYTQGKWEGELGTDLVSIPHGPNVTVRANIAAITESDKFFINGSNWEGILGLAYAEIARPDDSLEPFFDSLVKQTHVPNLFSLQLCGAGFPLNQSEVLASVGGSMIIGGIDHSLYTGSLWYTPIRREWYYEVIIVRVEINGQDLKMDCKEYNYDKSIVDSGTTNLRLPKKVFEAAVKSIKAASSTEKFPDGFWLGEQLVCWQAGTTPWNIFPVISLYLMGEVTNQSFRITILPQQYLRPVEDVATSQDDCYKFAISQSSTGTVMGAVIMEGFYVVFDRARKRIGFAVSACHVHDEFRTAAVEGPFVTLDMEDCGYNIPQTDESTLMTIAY
T2 sequence (P56817 46-460 limits assumed): as above

For the compound `CC[C@H](C)[C@H](NC(=O)[C@H](Cc1ccccc1)NC(=O)[C@H](Cc1ccc(O)cc1)NC(=O)[C@@H]1CCCN1C(=O)[C@H](Cc1ccc(O)cc1)NC(C)=O)C(=O)N1CCC[C@H]1C(=O)N[C@@H](CC(C)C)C(N)=O` [BMS-593925, Tyr-Pro-Tyr-Phe-Ile-Pro-Leu], at BACE [1] (pH 4.5, displacement of Molecule Y1, read-out: Kd of unlabeled EBP by competition), the pKd was 5.92.

In the case of Ac-HWPFFIRS-NH2 [BMS-655507], on BACE [2] (50 mM NaOAc, pH 4.5), the KA is 610000 M⁻¹, the pKd is 5.79, the TΔS is -5.46 kcal/mol and the ΔG is -7.90 kcal/mol. Besides, the ΔH at BACE [2] (50 mM NaOAc, pH 4.5) was -13.35 kcal/mol. At BACE [2] (Dulbecco's PBS, pH 7.0), this compound gave a KA of 1.09e+06 M⁻¹, a pKd of 6.04, a TΔS of -9.81 kcal/mol and a ΔG of -8.23 kcal/mol. The ΔH on BACE [2] (Dulbecco's PBS, pH 7.0) was -18.04 kcal/mol.

Take “LYPPYIF (Ac-LYPPYIF-NH2) [BMS-599271, scrambled peptide containing the same amino acids as BMS-593925]”: the “binding to BACE” value with BACE [1] (scrambled peptide) is given as “does not bind to BACE”.

“Molecule Y2: analog of Molecule Y1 with different length of linker between Alexa488 and the peptide (Ac-YPYFIPL-Alexa488; also: linker between peptide and Alexa488 not given here)”: the pKd in assay [3] was 7.04.

“Molecule Y4: analog of Molecule Y1 with different length of linker between Alexa488 and the peptide (Ac-YPYFIPL-Alexa488; also: linker between peptide and Alexa488 not given here)”: the pKd in assay [3] is 7.21.

These data come from patent US7314726B2, “Beta secretase exosite binding peptides and methods for identifying beta secretase modulators” (Bristol-Myers Squibb Company, priority 2002, dated 2008).
